Source: patent US11040035B2, “3-oxo-2,6-diphenyl-2,3-dihydropyridazine-4-carboxamides” (BAYER PHARMA AKTIENGESELLSCHAFT, priority 2016, dated 2021)

Assays:
AHR [1] = target: T1, AHR (Homo sapiens, UniProt P35869); test: In vitro assay 2: agonism in human cell line (transactivation assay); details: Assay 2: AHR-luc Hum Agonism IC50 [M], no kynurenic acid, 20 hours, firefly luciferase
T1 sequence (P35869 11-848): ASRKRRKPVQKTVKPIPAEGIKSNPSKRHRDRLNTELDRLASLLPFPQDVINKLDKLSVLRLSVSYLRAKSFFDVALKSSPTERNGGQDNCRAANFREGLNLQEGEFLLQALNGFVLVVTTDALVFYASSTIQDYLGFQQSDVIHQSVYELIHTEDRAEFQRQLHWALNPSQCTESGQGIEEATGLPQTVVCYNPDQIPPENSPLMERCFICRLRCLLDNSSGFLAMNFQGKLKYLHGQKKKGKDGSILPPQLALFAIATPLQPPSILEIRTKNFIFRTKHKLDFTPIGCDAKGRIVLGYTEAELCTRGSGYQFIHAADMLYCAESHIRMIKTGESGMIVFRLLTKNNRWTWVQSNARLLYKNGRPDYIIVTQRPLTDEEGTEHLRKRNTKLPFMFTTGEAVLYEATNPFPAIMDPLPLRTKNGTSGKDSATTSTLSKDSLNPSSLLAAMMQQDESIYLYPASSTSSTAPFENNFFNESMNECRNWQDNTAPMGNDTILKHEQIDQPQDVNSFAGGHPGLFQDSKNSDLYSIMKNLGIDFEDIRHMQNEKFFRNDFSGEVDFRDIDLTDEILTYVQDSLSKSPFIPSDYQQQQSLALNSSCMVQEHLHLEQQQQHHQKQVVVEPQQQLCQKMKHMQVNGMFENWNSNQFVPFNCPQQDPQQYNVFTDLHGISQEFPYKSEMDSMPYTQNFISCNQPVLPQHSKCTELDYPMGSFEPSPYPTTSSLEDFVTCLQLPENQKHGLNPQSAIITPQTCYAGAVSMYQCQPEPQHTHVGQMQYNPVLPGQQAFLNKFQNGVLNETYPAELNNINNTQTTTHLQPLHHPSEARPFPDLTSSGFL

[2] = tested on: AHR-regulated gene CYP1A1; test: In vitro assay 3: AHR-regulated CYP1A1 expression in human cell line (U937, qPCR); details: Homo sapiens, U-937, 6 h, read-out: Assay 3: Hum CYP1A1 Antagonism IC50 [M], U937 cells, 200 μM KA, 6 hours, qPCR
AHR [3] = target: T1, AHR; test: In vitro assay 1: antagonism in human cell line (transactivation assay, kynurenic acid prestimulated); details: Assay 1: AHR-luc Hum Antagonism IC50 [M], 150 μM kynurenic acid, 20 hours, firefly luciferase

O=C(N[C@@H]1CCC[C@@H]1O)c1cc(-c2ccc(Cl)cc2)nn(-c2cccc(F)c2)c1=O (relative stereo) [Example 109, 6-(4-Chlorophenyl)-2-(3-fluorophenyl)-N-(cis-2-hydroxycyclopentyl)-3-oxo-2,3-dihydropyridazine-4-carboxamide]
IC50 (AHR [1]): > 2e-05 M | IC50 [2]: 3.61e-08 M

Cc1ccc(-c2cc(C(=O)NC(CO)C(C)C)c(=O)n(-c3cccc(F)c3)n2)cc1 (stereo not shown) [Example 1, 2-(3-Fluorophenyl)-N-(1-hydroxy-3-methylbutan-2-yl)-6-(4-methylphenyl)-3-oxo-2,3-dihydropyridazine-4-carboxamide]
IC50 [2]: 3.1e-08 M | IC50 (AHR [3]): 2.98e-08 M

Cc1ccc(-c2cc(C(=O)N[C@@H](CO)C(C)C)c(=O)n(-c3cccc(F)c3)n2)cc1 [Example 3, 2-(3-Fluorophenyl)-N-[(2R)-1-hydroxy-3-methylbutan-2-yl]-6-(4-methylphenyl)-3-oxo-2,3-dihydropyridazine-4-carboxamide]
IC50 [2]: 1.31e-07 M | IC50 (AHR [3]): 3.03e-07 M

Cc1ccc(-c2cc(C(=O)NC(C)CO)c(=O)n(-c3cccc(F)c3)n2)cc1 (stereo not shown) [Example 7, 2-(3-Fluorophenyl)-N-(1-hydroxypropan-2-yl)-6-(4-methylphenyl)-3-oxo-2,3-dihydropyridazine-4-carboxamide]
IC50 [2]: 1.23e-07 M | IC50 (AHR [3]): 6.4e-08 M

CC[C@@H](CO)NC(=O)c1cc(-c2ccc(Cl)cc2)nn(-c2cccc(F)c2)c1=O [Example 21, 6-(4-Chlorophenyl)-2-(3-fluorophenyl)-N-[(2S)-1-hydroxybutan-2-yl]-3-oxo-2,3-dihydropyridazine-4-carboxamide]
IC50 [2]: 3.54e-08 M | IC50 (AHR [3]): 1.89e-08 M

Cc1ccc(-c2cc(C(=O)NC(CO)C(C)C)c(=O)n(-c3ccccc3)n2)cc1 (stereo not shown) [Example 70, N-(1-hydroxy-3-methylbutan-2-yl)-6-(4-methylphenyl)-3-oxo-2-phenyl-2,3-dihydropyridazine-4-carboxamide]
IC50 [2]: 1.26e-07 M | IC50 (AHR [3]): 9.22e-08 M

Cc1ccc(-c2cc(C(=O)N[C@H](CO)C(C)C)c(=O)n(-c3cccc(F)c3)n2)cc1C [Example 83, 6-(3,4-dimethylphenyl)-2-(3-fluorophenyl)-N-[(2S)-1-hydroxy-3-methylbutan-2-yl]-3oxo-2,3-dihydropyridazine-4-carboxamide]
IC50 [2]: 2.39e-08 M | IC50 (AHR [3]): 3.6e-08 M

CC[C@@H](CO)NC(=O)c1cc(-c2ccc(C)c(C)c2)nn(-c2cccc(F)c2)c1=O [Example 86, 6-(3,4-dimethylphenyl)-2-(3-fluorophenyl)-N-[(2S)-1-hydroxybutan-2-yl]-3-oxo-2,3-dihydropyridazine-4-carboxamide]
IC50 [2]: 4.83e-08 M | IC50 (AHR [3]): 4.55e-08 M

Cc1ccc(-c2cc(C(=O)N[C@@H](C)CO)c(=O)n(-c3cccc(F)c3)n2)cc1C [Example 89, 6-(3,4-dimethylphenyl)-2-(3-fluorophenyl)-N-[(2S)-1-hydroxypropan-2-yl]-3-oxo-2,3-dihydropyridazine-4-carboxamide]
IC50 [2]: 1.88e-07 M | IC50 (AHR [3]): 1.15e-07 M

CC(C)(O)CNC(=O)c1cc(-c2ccc(OC(F)(F)F)cc2)nn(-c2cccc(F)c2)c1=O [Example 382, 2-(3-fluorophenyl)-N-(2-hydroxy-2-methylpropyl)-3-oxo-6-[4-(trifluoromethoxy)phenyl]-2,3-dihydropyridazine-4-carboxamide]
IC50 (AHR [1]): > 2e-05 M | IC50 (AHR [3]): 9e-08 M

C[C@H](NC(=O)c1cc(-c2ccc(OC(F)F)cc2)nn(-c2cccc(F)c2)c1=O)C(C)(C)O [Example 386, 6-[4-(difluoromethoxy)phenyl]-2-(3-fluorophenyl)-N-[(2S)-3-hydroxy-3-methylbutan-2-yl]-3-oxo-2,3-dihydropyridazine-4-carboxamide]
IC50 (AHR [1]): > 2e-05 M | IC50 (AHR [3]): 6.5e-08 M

CC(C)(C)OC(=O)N1C[C@H](O)[C@H](NC(=O)c2cc(-c3ccc(Cl)cc3)nn(-c3cccc(F)c3)c2=O)C1 [Example 387, tert-butyl (3R,4S)-3-({[6-(4-chlorophenyl)-2-(3-fluorophenyl)-3-oxo-2,3-dihydropyridazin-4-yl]carbonyl}amino)-4-hydroxypyrrolidine-1-carboxylate]
IC50 (AHR [1]): > 2e-05 M | IC50 (AHR [3]): 3.5e-07 M

O=C(NCC(O)C(F)(F)F)c1cc(-c2ccc(Cl)cc2)nn(-c2cccc(C(F)F)c2)c1=O (stereo not shown) [Example 389, 6-(4-chlorophenyl)-2-[3-(difluoromethyl)phenyl]-3-oxo-N-(3,3,3-trifluoro-2-hydroxypropyl)-2,3-dihydropyridazine-4-carboxamide]
IC50 (AHR [1]): > 2e-05 M | IC50 (AHR [3]): 8.8e-07 M

CC(C)OC[C@H](NC(=O)c1cc(-c2ccc(Cl)cc2)nn(-c2cccc(F)c2)c1=O)C(C)(C)O [Example 390, 6-(4-chlorophenyl)-2-(3-fluorophenyl)-N-[(2S)-3-hydroxy-1-isopropoxy-3-methylbutan-2-yl]-3-oxo-2,3-dihydropyridazine-4-carboxamide]
IC50 (AHR [1]): > 2e-05 M | IC50 (AHR [3]): 9.4e-07 M

C[C@H](NC(=O)c1cc(-c2ccc(C(F)(F)F)cc2)nn(-c2cccc(F)c2)c1=O)C(C)(C)O [Example 391, 2-(3-fluorophenyl)-N-[(2S)-3-hydroxy-3-methylbutan-2-yl]-3-oxo-6-[4-(trifluoromethyl)phenyl]-2,3-dihydropyridazine-4-carboxamide]
IC50 (AHR [1]): > 2e-05 M | IC50 (AHR [3]): 1e-08 M

O=C(N[C@H]1C[C@H](CO)C1)c1cc(-c2ccc(Cl)cc2)nn(-c2cccc(F)c2)c1=O [Example 396, 6-(4-chlorophenyl)-2-(3-fluorophenyl)-N-[trans-3-(hydroxymethyl)cyclobutyl]-3-oxo-2,3-dihydropyridazine-4-carboxamide]
IC50 (AHR [1]): > 2e-05 M | IC50 (AHR [3]): 1.3e-07 M

O=C(NC[C@H](O)C(F)(F)F)c1cc(-c2ccc(CF)cc2)nn(-c2cccc(F)c2)c1=O [Example 397, 6-[4-(fluoromethyl)phenyl]-2-(3-fluorophenyl)-3-oxo-N-[(2S)-3,3,3-trifluoro-2-hydroxypropyl]-2,3-dihydropyridazine-4-carboxamide]
IC50 (AHR [1]): > 2e-05 M | IC50 (AHR [3]): 1.8e-07 M

COC(=O)C(C)(C)CNC(=O)c1cc(-c2ccc(Cl)cc2)nn(-c2cccc(F)c2)c1=O [Example 398, methyl 3-({[6-(4-chlorophenyl)-2-(3-fluorophenyl)-3-oxo-2,3-dihydropyridazin-4-yl]carbonyl}amino)-2,2-dimethylpropanoate]
IC50 (AHR [1]): > 2e-05 M | IC50 (AHR [3]): 4.2e-07 M

CC(C)(CNC(=O)c1cc(-c2ccc(Cl)cc2)nn(-c2cccc(F)c2)c1=O)C(=O)O [Example 399, 3-({[6-(4-Chlorophenyl)-2-(3-fluorophenyl)-3-oxo-2,3-dihydropyridazin-4-yl]carbonyl}amino)-2,2-dimethylpropanoic acid]
IC50 (AHR [1]): > 2e-05 M | IC50 (AHR [3]): 7.2e-07 M

C[C@@H](CO)NC(=O)c1cc(-c2ccc(Cl)cc2)nn(-c2cccc(C#N)c2)c1=O [Example 400, 6-(4-chlorophenyl)-2-(3-cyanophenyl)-N-[(2S)-1-hydroxypropan-2-yl]-3-oxo-2,3-dihydropyridazine-4-carboxamide]
IC50 (AHR [1]): > 2e-05 M | IC50 (AHR [3]): 8e-07 M

CC(C)[C@@H](CO)NC(=O)c1cc(-c2ccc(Cl)c(F)c2)nn(-c2cc(F)cc(F)c2)c1=O [Example 401, 6-(4-chloro-3-fluorophenyl)-2-(3,5-difluorophenyl)-N-[(2S)-1-hydroxy-3-methylbutan-2-yl]-3-oxo-2,3-dihydropyridazine-4-carboxamide]
IC50 (AHR [1]): > 2e-05 M | IC50 (AHR [3]): 1e-07 M

C[C@@H](CO)NC(=O)c1cc(-c2ccc(Cl)c(F)c2)nn(-c2cc(F)cc(F)c2)c1=O [Example 402, 6-(4-chloro-3-fluorophenyl)-2-(3,5-difluorophenyl)-N-[(2S)-1-hydroxypropan-2-yl]-3-oxo-2,3-dihydropyridazine-4-carboxamide]
IC50 (AHR [1]): > 2e-05 M | IC50 (AHR [3]): 3.7e-07 M

O=C(NCC(O)C(F)(F)F)c1cc(-c2ccc(Cl)c(F)c2)nn(-c2cc(F)cc(F)c2)c1=O (stereo not shown) [Example 403, 6-(4-chloro-3-fluorophenyl)-2-(3,5-difluorophenyl)-3-oxo-N-(3,3,3-trifluoro-2-hydroxypropyl)-2,3-dihydropyridazine-4-carboxamide]
IC50 (AHR [1]): > 2e-05 M | IC50 (AHR [3]): 3.1e-07 M
